# Measurements from patent US7754746B2, “Organic compounds” (Novartis AG, priority 2005, dated 2010).
# Target: recombinant GST-p110γ (human PI3Kγ residues 38-1102) (Homo sapiens, UniProt P48736)
# Test: in vitro kinase assay (Scintillation Proximity Assay), phosphate transfer from ATP to phosphatidylinositol
# Conditions: 12.5 μM ATP in assay mix, 60 minutes at room temperature
# Experimental: An in vitro kinase assay was established that measures the transfer of the terminal phosphate of adenosine triphosphate to phosphatidylinositol. The kinase reaction is performed in a white 96 well microtitre plate as a Scintillation Proximity Assay. […] The reaction is started by the addition of 20 μl of enzyme mix (40 mM Tris, 200 mM NaCl, 2 mM EGTA containing recombinant GST-p110γ).
# Chain of recombinant GST-p110γ (human PI3Kγ residues 38-1102) (P48736 38-1102): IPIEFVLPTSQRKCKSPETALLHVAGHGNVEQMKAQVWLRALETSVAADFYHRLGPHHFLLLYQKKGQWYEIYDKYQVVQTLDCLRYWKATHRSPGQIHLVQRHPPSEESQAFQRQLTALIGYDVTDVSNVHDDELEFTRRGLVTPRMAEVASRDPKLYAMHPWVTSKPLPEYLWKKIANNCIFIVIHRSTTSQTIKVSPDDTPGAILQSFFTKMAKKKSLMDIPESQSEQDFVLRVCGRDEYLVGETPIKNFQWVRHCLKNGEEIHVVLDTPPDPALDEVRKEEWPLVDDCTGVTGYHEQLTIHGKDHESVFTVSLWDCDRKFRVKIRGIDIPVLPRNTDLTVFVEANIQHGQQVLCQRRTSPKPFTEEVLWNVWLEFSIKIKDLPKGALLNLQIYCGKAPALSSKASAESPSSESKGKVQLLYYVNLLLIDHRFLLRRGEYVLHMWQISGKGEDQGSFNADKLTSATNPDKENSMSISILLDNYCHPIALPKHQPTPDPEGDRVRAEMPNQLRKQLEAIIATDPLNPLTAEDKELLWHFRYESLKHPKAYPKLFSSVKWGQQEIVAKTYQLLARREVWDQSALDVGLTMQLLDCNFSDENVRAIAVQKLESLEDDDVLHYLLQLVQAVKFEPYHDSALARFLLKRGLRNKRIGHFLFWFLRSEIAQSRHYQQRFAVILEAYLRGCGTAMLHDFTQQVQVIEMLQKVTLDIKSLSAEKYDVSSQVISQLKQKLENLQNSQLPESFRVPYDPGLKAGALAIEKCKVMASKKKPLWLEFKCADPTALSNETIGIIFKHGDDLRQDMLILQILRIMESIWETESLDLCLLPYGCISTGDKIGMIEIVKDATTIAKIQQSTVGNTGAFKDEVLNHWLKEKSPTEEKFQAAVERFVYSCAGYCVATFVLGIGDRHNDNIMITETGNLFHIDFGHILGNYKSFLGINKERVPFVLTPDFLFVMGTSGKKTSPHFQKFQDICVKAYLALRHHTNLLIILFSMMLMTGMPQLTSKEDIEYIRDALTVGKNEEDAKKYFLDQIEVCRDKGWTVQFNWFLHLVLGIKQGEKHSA
compound,measurement,value
CC(=O)c1ccc(-c2sc(NC(=O)NCCc3cn(CCF)cn3)nc2C)cc1 [Example 5],IC50,110 nM
